Results on 16 molecules are retold here after US20230011869A1 (Hoffmann-La Roche Inc., priority 2018, published 2023).

The assay relates to Acinetobacter baumannii ATCC17961. Kind of assay: Antimicrobial susceptibility testing: 90% growth inhibitory concentration (IC90) determination, Iso-Sensitest broth. The settings on record: Acinetobacter baumannii, ATCC17961, 16 h, 90% growth inhibitory concentration, Acinetobacter baumannii ATCC17961, Iso-Sensitest broth, OD 600 nm over 16 h; read-out: ATCC17961 IC90. Format: cell-based. In outline: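 Twofold serial dilutions (e.g. 50 to 0.097 μM final) in Iso-Sensitest broth, inoculum 5×10^(5) CFU/ml, incubated at 35±2° C. OD600 read every 20 minutes over 16 h; IC90 derived from growth inhibition during logarithmic phase.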

Structures can show the parent of a compound that is named as a salt.

The IC90 is the point of the concentration-response curve where the effect stands at 90%. Turning to `Cc1cc(Nc2nccn3c(-c4ccc(OCC#N)c(F)c4Cl)cnc23)ccc1C(=O)N1CCN(C(=O)[C@@H]2C[C@@H](O)CN2)CC1` [Example 211, 2-[3-chloro-2-fluoro-4-[8-[4-[4-[(2S,4R)-4-hydroxypyrrolidine-2-carbonyl]piperazine-1-carbonyl]-3-methyl-anilino]imidazo[1,2-a]pyrazin-3-yl]phenoxy] acetonitrile formate], the IC90 stood at 42 nM.

As to `Cc1cc(Nc2nccn3c(-c4ccc(OCC#N)c(F)c4Cl)cnc23)ccc1C(=O)N1CCN(C(=O)[C@@H]2CCNC2)CC1` [Example 212, 2-[3-chloro-2-fluoro-4-[8-[3-methyl-4-[4-[(3R)-pyrrolidine-3-carbonyl]piperazine-1-carbonyl]anilino]imidazo[1,2-a]pyrazin-3-yl]phenoxy] acetonitrile formate], the IC90 worked out at 34 nM.

With `Cc1cc(Nc2nccn3c(-c4ccc(OCC#N)c(F)c4Cl)cnc23)ccc1C(=O)N1CCN(C(=O)[C@H]2CCNC2)CC1` [Example 213, 2-[3-chloro-2-fluoro-4-[8-[3-methyl-4-[4-[(3S)-pyrrolidine-3-carbonyl]piperazine-1-carbonyl]anilino]imidazo[1,2-a]pyrazin-3-yl]phenoxy] acetonitrile formate], the IC90 was found to be 33 nM.

As to `Cc1cc(Nc2nccn3c(-c4ccc(OCC#N)c(F)c4Cl)cnc23)ccc1C(=O)N1CCN(C(=O)C2(O)CCNCC2)CC1` [Example 214, 2-[3-chloro-2-fluoro-4-[8-[4-[4-(4-hydroxypiperidine-4-carbonyl)piperazine-1-carbonyl]-3-methyl-anilino]imidazo[1,2-a]pyrazin-3-yl]phenoxy] acetonitrile formate], the IC90 worked out at 41 nM.

`Cc1cc(Nc2nccn3c(-c4ccc(OCC#N)c(F)c4Cl)cnc23)ccc1C(=O)N1CCN(C(=O)[C@H]2CCNC[C@@H]2O)CC1` [Example 220, 2-[3-chloro-2-fluoro-4-[8-[4-[4-[(3R,4S)-3-hydroxypiperidine-4-carbonyl]piperazine-1-carbonyl]-3-methyl-anilino]imidazo[1,2-a]pyrazin-3-yl]phenoxy] acetonitrile formate]: the IC90 was determined as 64 nM.

For `Cc1cc(Nc2nccn3c(-c4ccc(OCC#N)c(F)c4Cl)cnc23)ccc1C(=O)N1CCN(C(=O)[C@@H]2CCNC[C@H]2O)CC1` [Example 221, 2-[3-chloro-2-fluoro-4-[8-[4-[4-[(3S,4R)-3-hydroxypiperidine-4-carbonyl]piperazine-1-carbonyl]-3-methyl-anilino]imidazo[1,2-a]pyrazin-3-yl]phenoxy] acetonitrile formate], the IC90 is 59 nM.

As for `Cc1cc(Nc2nccn3c(-c4ccc(OCC#N)c(F)c4Cl)cnc23)ccc1C(=O)N1CCN(C(=O)[C@H]2CCNC[C@H]2O)CC1` [Example 222, 2-[3-chloro-2-fluoro-4-[8-[4-[4-[(3S,4S)-3-hydroxypiperidine-4-carbonyl]piperazine-1-carbonyl]-3-methyl-anilino]imidazo[1,2-a]pyrazin-3-yl]phenoxy] acetonitrile formate], the IC90 came to 38 nM.

For `COc1ccc(-c2cnc3c(Nc4ccc(C(=O)N5CCN(C(=O)[C@@H]6C[C@H](O)CN6)CC5)c(C)c4)nccn23)c(F)c1F` [Example 227, [4-[[3-(2,3-difluoro-4-methoxy-phenyl)imidazo[1,2-a]pyrazin-8-yl]amino]-2-methyl-phenyl]-[4-[(2S,4S)-4-hydroxypyrrolidine-2-carbonyl]piperazin-1-yl]methanone], the IC90 came out at 58 nM.

On to `CC[C@@]1(O)CN[C@H](C(=O)N2CCN(C(=O)c3ccc(Nc4nccn5c(-c6ccc(OCC#N)c(F)c6F)cnc45)cc3C)CC2)C1` [Example 229, 2-[4-[8-[4-[4-[(2S,4S)-4-ethyl-4-hydroxy-pyrrolidine-2-carbonyl]piperazine-1-carbonyl]-3-methyl-anilino]imidazo[1,2-a]pyrazin-3-yl]-2,3-difluoro-phenoxy]acetonitrile formate], for which the IC90 was determined as 44 nM.

With `Cc1cc(Nc2nccn3c(-c4ccc(OCC#N)c(F)c4F)cnc23)ccc1C(=O)N1CCN(C(=O)[C@@H]2C[C@@](C)(O)CN2)CC1` [Example 231, 2-[2,3-difluoro-4-[8-[4-[4-[(2S,4R)-4-hydroxy-4-methyl-pyrrolidine-2-carbonyl]piperazine-1-carbonyl]-3-methyl-anilino]imidazo[1,2-a]pyrazin-3-yl]phenoxy] acetonitrile formate], the IC90 is 53 nM.

For `COc1ccc(-c2cnc3c(Nc4ccc(C(=O)N5CCN(C(=O)[C@H]6NC[C@H](O)[C@@H]6O)CC5)c(C)c4)nccn23)cc1F` [Example 233, ((2S,3R,4S)-3,4-dihydroxypyrrolidin-2-yl)(4-(4-((3-(3-fluoro-4-methoxyphenyl)imidazo[1,2-a]pyrazin-8-yl)amino)-2-methylbenzoyl)piperazin-1-yl)methanone hydrochloride], the IC90 is 190 nM.

For the molecule `COc1ccc(-c2cnc3c(Nc4ccc(C(=O)N5CCN(C(=O)[C@H]6NC[C@H](O)[C@@H]6O)CC5)c(C)c4)nccn23)c(F)c1F` [Example 234, (4-(4-((3-(2,3-difluoro-4-methoxyphenyl)imida-zo[1,2-a]pyrazin-8-yl)amino)-2-methylbenzoyl)piper-azin-1-yl)((2S,3R,4S)-3,4-dihydroxypyrrolidin-2-yl)methanone], the IC90 came out at 133 nM.

Take `COc1ccc(-c2cnc3c(Nc4ccc(C(=O)N5CCN(C(=O)[C@@H]6NC[C@@H](O)[C@H]6O)CC5)c(C)c4)nccn23)c(F)c1F` [Example 235, (4-(4-((3-(2,3-difluoro-4-methoxyphenyl)imida-zo[1,2-a]pyrazin-8-yl)amino)-2-methylbenzoyl)piper-azin-1-yl)((2R,3S,4R)-3,4-dihydroxypyrrolidin-2-yl)methanone]: the IC90 is 117 nM.

As for `COc1ccc(-c2cnc3c(Nc4cc(C)c(C(=O)N5CCN(C(=O)[C@@H]6C[C@@H](O)CN6)CC5)c(F)c4)nccn23)c(F)c1F` [Example 243, (4-(4-((3-(2,3-difluoro-4-methoxyphenyl)imidazo[1,2-a]pyrazin-8-yl)amino)-2-fluoro-6-methylbenzoyl)piperazin-1-yl)((2S,4R)-4-hydroxypyrrolidin-2-yl)methanone dihydrochloride], the IC90 is 113 nM.

For the molecule `COc1ccc(-c2cnc3c(Nc4cc(F)c(C(=O)N5CCN(C(=O)[C@@H]6C[C@@H](O)CN6)CC5)cc4F)nccn23)c(F)c1F` [Example 244, (4-(4-((3-(2,3-difluoro-4-methoxyphenyl)imidazo[1,2-a]pyrazin-8-yl)amino)-2,5-difluorobenzoyl)piperazin-1-yl)((2S,4R)-4-hydroxypyrrolidin-2-yl)methanone], the IC90 came to 2730 nM.

`C#CCOc1ccc(-c2cnc3c(Nc4ccc(C(=O)N5CCN(C(=O)[C@@H]6C[C@@H](O)CN6)CC5)c(C)c4)nccn23)c(F)c1F` [Example 248, [4-[[3-(2,3-difluoro-4-prop-2-ynoxy-phenyl)imidazo[1,2-a]pyrazin-8-yl]amino]-2-methyl-phenyl]-[4-[(2S,4R)-4-hydroxypyrrolidine-2-carbonyl]piperazin-1-yl]methanone]: the IC90 amounted to 74 nM.
